Test results published in ChEMBL document CHEMBL1201862, “PubChem BioAssay data set” (2004).
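Briefly, cells in 96-well plates were exposed to five compound concentrations for 48 h, and endpoints were estimated by linear interpolation. Here, GI50 denotes the concentration required for 50% inhibition of growth.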 Activity calls are given as the source filed them. Rule as the data show it: active = GI50 up to about 1.1 µM and inactive = higher.

Key:
Assay in all cases: NCI tumour cell line growth inhibition, 48 h
NCI/ADR-RES = test system: NCI/ADR-RES
MDA-N = test system: MDA-N
MCF7 = test system: MCF7
SNB-78 = test system: SNB-78
LXFL 529 = test system: LXFL 529
M19-MEL = test system: M19-MEL
KM-20L2 = test system: KM-20L2
HOP-18 = test system: HOP-18

| Compound | GI50 (NCI/ADR-RES) | GI50 (MDA-N) | GI50 (MCF7) | GI50 (SNB-78) | GI50 (LXFL 529) | GI50 (M19-MEL) | GI50 (KM-20L2) | GI50 (HOP-18) |
| --- | --- | --- | --- | --- | --- | --- | --- | --- |
| CCOC(=O)C1CCC/C1=N\NC(=N)N.Cc1cc(O)c(C(C)C)cc1S(=O)(=O)O (stereo not drawn) | > 100 µM (inactive) | > 100 µM (inactive) | > 100 µM (inactive) |  |  |  |  |  |
| CCCCCCCCCCCCCCCCCC(=O)Nc1ccn(C2CCC(COP(=O)(O)O)O2)c(=O)n1 (stereo not drawn) | > 100 µM (inactive) |  | > 100 µM (inactive) |  |  |  |  |  |
| C[Si]12OCCCN(CCO1)CCO2 |  |  |  | > 100 µM (inactive) | > 100 µM (inactive) | > 100 µM (inactive) |  |  |
| N#Cc1ccc(Nc2cnc3ccc(N)cc3n2)cc1 |  |  |  | > 100 µM (inactive) | > 100 µM (inactive) | > 100 µM (inactive) | > 100 µM (inactive) |  |
| CCOC(=O)C(C(=O)OCC)C1C=CCC2c3ccccc3COCC21 (stereo not drawn) | 28.2 µM (inactive) | 40.7 µM (inactive) | 31.8 µM (inactive) |  |  |  |  |  |
| COc1c(OC)c(N)c2cc(C)c(=O)c(C)cc2c1N |  |  |  | > 100 µM (inactive) | 64.9 µM (inactive) | > 100 µM (inactive) | > 100 µM (inactive) | > 100 µM (inactive) |
| Cc1ccc(S(=O)(=O)[C@@H](Cl)[C@H]2N=C(Cl)NN=C2c2ccccc2)cc1 | 21.4 µM (inactive) | 26.1 µM (inactive) | 26.9 µM (inactive) |  |  |  |  |  |
| c1cc(-c2cnc(-c3ccc4c(c3)CCCO4)o2)ccn1 | 17.1 µM (inactive) | 14.7 µM (inactive) | 14.7 µM (inactive) |  |  |  |  |  |
| C=CCn1c(-c2ccc(-c3cs/c(=N\N=O)n3CC=C)cc2)cs/c1=N\N=O | > 100 µM (inactive) | > 100 µM (inactive) | > 100 µM (inactive) |  |  |  |  |  |
| CC1=CC2=C(C#N)C(=O)OC2(C)C(c2ccccc2)C1 (stereo not drawn) | 72.1 µM (inactive) | > 100 µM (inactive) |  |  |  |  |  |  |
| N=c1oc2ccc3ccccc3c2cc1-c1nc(O)c2ccccc2n1 | 14.2 µM (inactive) | 46.2 µM (inactive) | 14.4 µM (inactive) |  |  |  |  |  |
| C#C[C@]1(O)CCCC2=CC(=O)CC[C@@]21C |  |  |  |  | > 100 µM (inactive) | > 100 µM (inactive) | > 100 µM (inactive) | > 100 µM (inactive) |
| COc1c2c(cc3c1C(=O)c1c(O)cccc1C3=O)CC(O)CC2 (stereo not drawn) | 35.8 µM (inactive) | > 100 µM (inactive) | > 100 µM (inactive) |  |  |  |  |  |
| COC(=O)C1=C(C(=O)OC)N(c2ccc(OC)cc2[N+](=O)[O-])C(c2ccc(C)cc2)=CC1c1ccc(OC)cc1OC (stereo not drawn) | 22.9 µM (inactive) | 4.62 µM (inactive) | 4.05 µM (inactive) |  |  |  |  |  |
| CN(C)C(=O)C(F)(F)C(c1ccc(F)cc1)C1C(=O)N(C)C(=O)N(C)C1=O (stereo not drawn) | > 100 µM (inactive) |  | > 100 µM (inactive) |  |  |  |  |  |
| O=C(O)CC(C(=O)O)c1ccccc1[N+](=O)[O-] (stereo not drawn) | > 100 µM (inactive) | > 100 µM (inactive) | > 100 µM (inactive) |  |  |  |  |  |
| CCSc1nnc(Sc2c3ccccc3nc3ccccc23)s1 | 19.7 µM (inactive) | 6.68 µM (inactive) | 3.92 µM (inactive) |  |  |  |  |  |
| O=C1/C(=C\c2ccc([N+](=O)[O-])cc2)N(S(=O)(=O)c2ccccc2)c2ncccc21 | 23.9 µM (inactive) | 19.5 µM (inactive) | 24.7 µM (inactive) |  |  |  |  |  |
| CN(CCCCN1CCCC1)CCCCN(C)C(=O)Cc1ccc(Cl)c(Cl)c1 | > 100 µM (inactive) | 3.56 µM (inactive) | 14 µM (inactive) |  |  |  |  |  |
| c1ccc2nc(CCC3CCCCN3)ccc2c1 (stereo not drawn) | 49.5 µM (inactive) | 87.7 µM (inactive) | > 100 µM (inactive) |  |  |  |  |  |
| COc1cc(OC)cc(C(=O)NC2=C(Cl)C(=O)c3ccccc3C2=O)c1 | 2.28 µM (inactive) | 1.91 µM (inactive) | 2.84 µM (inactive) |  |  |  |  |  |
| CCOC(=O)c1c(C)[nH]c2c1c(CN(C)C)c(O)c1nc(C)c(C)nc12 | 24.2 µM (inactive) | 19.2 µM (inactive) | 17.9 µM (inactive) |  |  |  |  |  |
| CC(=O)Nc1ccc2c3c(cc(O)c2c1)N(C(=O)CCCCCCC(=O)N1CC(CCl)c2c1cc(O)c1cc(NC(C)=O)ccc21)CC3CCl (stereo not drawn) | 0.673 µM (active) | < 0.01 µM (active) | < 0.01 µM (active) |  |  |  |  |  |
| CCn1c2ccccc2c2cc(Nc3cc(C)[nH]c(=O)n3)ccc21 | > 100 µM (inactive) | 0.394 µM (active) | > 100 µM (inactive) |  |  |  |  |  |
| S=C(S)NCNC(=S)S | > 100 µM (inactive) | > 100 µM (inactive) | > 100 µM (inactive) |  |  |  |  |  |
| c1ccc([P+](Cc2ccc(C[P+](c3ccccc3)(c3ccccc3)c3ccccc3)cc2)(c2ccccc2)c2ccccc2)cc1 | > 100 µM (inactive) | 31 µM (inactive) | 51.4 µM (inactive) |  |  |  |  |  |
| CCCCCC(=O)N[C@H]1CCc2cc(O)c(O)c(O)c2-c2ccc(SC)c(=O)cc21 |  |  |  | 65.2 µM (inactive) | 21.5 µM (inactive) | 19.9 µM (inactive) | 27.6 µM (inactive) |  |
| C=CC(C1=CC(=O)C(OC)=CC1=O)c1ccccc1 (stereo not drawn) [4-METHOXYDALBERGIONE] | 18.5 µM (inactive) | 13.8 µM (inactive) | 7.48 µM (inactive) |  |  |  |  |  |
| C[C@@H]1CC[C@]2(C(=O)O)CC[C@]3(C)C(=CC[C@@H]4[C@@]5(C)CC[C@H](O)C(C)(C)[C@@H]5CC[C@]43C)[C@@H]2[C@]1(C)O [POMOLIC ACID] | 15.5 µM (inactive) |  | 20 µM (inactive) |  |  |  |  |  |
